# Experimental data from BindingDB's records for doi:10.1016/j.bbrc.2004.06.020 (Chosun University, 2004).
# Experiment: TP_TRANSPORTER: drug resistance (vincristine) in AML-2/D100 cells
row,IC50 [µM],Structure (SMILES)
1,3.2,COc1cc(-c2oc3cc(O)cc(O)c3c(=O)c2O)cc(OC)c1OC
2,0.4,COc1cc(OC)c2c(=O)cc(-c3cc(OC)c(OC)c(OC)c3)oc2c1
3,0.9,COc1cc(-c2cc(=O)c3c(OC)c(OC)c(OC)cc3o2)cc(OC)c1OC
4,1.2,COc1ccc(-c2cc(=O)c3ccccc3o2)cc1OC
5,1.2,COc1ccc2c(=O)cc(-c3ccc(OC)c(OC)c3)oc2c1
6,1.9,COc1ccc2oc(-c3ccc(OC)c(OC)c3)c(OC)c(=O)c2c1
7,6.3,COc1ccc(-c2oc3cc(O)ccc3c(=O)c2O)cc1OC
8,3.2,"COc1ccc(-c2cc(=O)c3c(OC)c(OC)c(OC)cc3o2)cc1OC [2-(3,4-dimethoxyphenyl)-5,6,7-trimethoxy-4H-chromen-4-one]"
9,1.4,COc1ccc(-c2cc(=O)c3c(OC)cc(OC)cc3o2)cc1 [TRIMETHYLAPIGENIN]

row,Structure (SMILES),IC50 [µM]
1,"O=c1cc(-c2ccc(O)c(O)c2)oc2cc(O)cc(O)c12 [2-(3,4-dihydroxyphenyl)-5,7-dihydroxy-4H-chromen-4-one]",19.6
